Measured values: patent publication US5378696A, “Rapamycin esters” (American Home Products Corporation, priority 1993, dated 1995)
Entries after “also recorded” stand apart in the source; their conditions may differ.

Assays:
[1] = test system: lymphocyte proliferation, cells from the thymus of normal BALB/c mice (PHA and IL-1); test: comitogen-induced thymocyte proliferation procedure (LAF); type: cell-based
Protocol: (§1) Immunosuppressive activity was evaluated in an in vitro standard pharmacological test procedure to measure lymphocyte proliferation (LAF) and in two in vivo standard pharmacological test procedures. The first in vivo procedure was a popliteal lymph node (PLN) test procedure which measured the effect of compounds of this invention on a mixed lymphocyte reaction and the second in vivo procedure evaluated the survival time of a pinch skin graft.
Briefly, cells from the thymus of normal BALB/c mice are cultured for 72 hours with PHA and IL-1 and pulsed with tritiated thymidine during the last six hours. […] Cells are harvested and incorporated; radioactivity is determined. inhibition of lymphoproliferation is assessed in percent change in counts per minute from non-drug treated controls. The results are expressed by the following ratio: [formula]

[2] = test system: 5 strains of Candida albicans; test: antifungal plate test procedure, 5 strains (overall); type: cell-based; conditions: not evaluated; considered because of structural similarity
Protocol: The following represents the typical procedure used. Compound to be tested was placed on sterile dried 1/4" plate disks, and allowed to dry. Agar plates were seeded with fungi and allowed to solidify. The impregnated disks were placed on the seeded Agar surface and incubated for the time required for the particular culture. Results are expressed in MIC (μg/ml) to inhibit growth.

[3] = test system: pinch skin graft; test: survival time of pinch skin graft; type: in vivo, mouse (male DBA/2 donors, male BALB/c recipients); conditions: intraperitoneally; mean graft survival time ± S.D.
Protocol: as §1
The second in vivo test procedure is designed to determine the survival time of pinch skin graft from male DBA/2 donors transplanted to male BALB/c recipients. The method is adapted from Billingham R. E. and Medawar P. B., J. Exp. Biol. 28:385-402, (1951). Briefly, a pinch skin graft from the donor is grafted on the dorsum of the recipient as a homograft, and an autograft is used as control in the same region. […] Untreated recipients serve as rejection control. The graft is monitored daily and observations are recorded until the graft becomes dry and forms a blackened scab. This is considered as the rejection day. The mean graft survival time (number of days±S.D.) of the drug treatment group is compared with the control group.

[4] = test system: mixed lymphocyte reaction, popliteal lymph node; test: popliteal lymph node (PLN) test procedure, in vivo mixed lymphocyte reaction; parameters: species or system mouse (BALB/c donors, C3H recipients); conditions: p.o. daily Day 0 to Day 4, carboxymethyl cellulose vehicle; rapamycin 1.0
Protocol: as §1
A mixed lymphocyte reaction (MLR) occurs when lymphoid cells from genetically distinct animals are combined in tissue culture. Each stimulates the other to undergo blast transformation which results in increased DNA synthesis that can be quantified by the incorporation of tritiated thymidine. Since stimulating a MLR is a function of disparity at Major Histocompatibility antigens, an in vivo popliteal lymph node (PLN) test procedure closely correlates to host vs. graft disease. Briefly, irradiated spleen cells from BALB/c donors are injected into the right hind foot pad of recipient C3H mice. The drug is given daily, p.o. from Day 0 to Day 4. On Day 3 and Day 4, tritiated thymidine is given i.p., b.i.d. On Day 5, the hind popliteal lymph nodes are removed and dissolved, and radioactivity counted. […] Percent suppression is calculated using the non-drug treated animals as allogenic control.

[5] = test system: transplant rejection; conditions: cited from earlier work
[6] = test system: Candida albicans; conditions: in vitro and in vivo; cited from earlier work
[7] = in vivo; cited from earlier work

Structure (SMILES)	inhibition at 0.1 µM ([1]; Mus musculus, Lymphocyte, percent inhibition at 100 nM)	antifungal activity [2]	Skin Graft (days + SD), mean graft survival time [3]	LAF (ratio) ([1]; ratio, thymocytes 72 hours with PHA and IL-1, rapamycin 1.0)	PLN (ratio) [4]	immunosuppressive effect [5]	antifungal activity [6]	usefulness in preventing or treating disease [7]
COC(=O)CCC(=O)O[C@@H]1CC[C@@H](C[C@@H](C)[C@@H]2CC(=O)[C@H](C)/C=C(\C)[C@@H](O)[C@@H](OC)C(=O)[C@H](C)C[C@H](C)/C=C/C=C/C=C(\C)[C@@H](OC)C[C@@H]3CC[C@@H](C)[C@@](O)(O3)C(=O)C(=O)N3CCCC[C@H]3C(=O)O2)C[C@H]1OC [Example 12, Rapamycin-42-monomethylsuccinate]	97%	considered to have antifungal activity	10.8 ± 0.4 days	–	–	–	–	–
CO[C@H]1C[C@@H]2CC[C@@H](C)[C@@](O)(O2)C(=O)C(=O)N2CCCC[C@H]2C(=O)O[C@H]([C@H](C)C[C@@H]2CC[C@@H](OC(=O)CCC(=O)OCc3ccc(C(F)(F)F)cc3)[C@H](OC)C2)CC(=O)[C@H](C)/C=C(\C)[C@@H](O)[C@@H](OC)C(=O)[C@H](C)C[C@H](C)/C=C/C=C/C=C/1C [Example 13, Rapamycin-42-(4-trifluoromethylbenzyl)succinate]	–	considered to have antifungal activity	10.6 ± 0.9 days	2.11	–	–	–	–
CO[C@H]1C[C@@H]2CC[C@@H](C)[C@@](O)(O2)C(=O)C(=O)N2CCCC[C@H]2C(=O)O[C@H]([C@H](C)C[C@@H]2CC[C@@H](O)[C@H](OC)C2)CC(=O)[C@H](C)/C=C(\C)[C@@H](O)[C@@H](OC)C(=O)[C@H](C)C[C@H](C)/C=C/C=C/C=C/1C [Rapamycin]	–	–	–	–	1.0	immunosuppressive effects	found to have antifungal activity, particularly against Candida albicans, both in vitro and in vivo	systemic lupus erythematosus; also recorded: pulmonary inflammation; also recorded: insulin dependent diabetes mellitus; also recorded: smooth muscle cell proliferation and intimal thickening following vascular injury; also recorded: ocular inflammation
